Measurements published in ChEMBL document CHEMBL4828751, “Discovery of novel tubulin/HDAC dual-targeting inhibitors with strong antitumor and antiangiogenic potency” (Eur J Med Chem, 2021).
Active and inactive are the calls of the source. The calls are words filed in the database; no cut-off is given here.

What was measured:
U-937 = experiment: Antiproliferative activity against human U-937 cells assessed as cell growth inhibition after 72 hrs by CCK8 assay; assay type: functional, cell-based; details: U-937, 72 h
MGC-803 [1] = experiment: Induction of apoptosis in human MGC-803 cells assessed as increase in cleaved Caspase-9 expression incubated for 24 hrs by Western blot analysis; assay type: functional, cell-based; details: dose 7.5-30 nM
MGC-803 [2] = experiment: Induction of apoptosis in human MGC-803 cells assessed as early apoptotic cells at 15 nM measured after 48 hrs by Annexin V-APC/PI double staining based flow cytometry assay (reference value: 1.31 %); assay type: functional, cell-based
Tubulin = experiment: Inhibition of tubulin polymerization (unknown origin) measured after 1 min by fluorescence assay; assay type: protein-complex assay, Homo sapiens; details: read-out: IC50
MGC-803 [3] = experiment: Induction of apoptosis in human MGC-803 cells assessed as increase in Caspase-9 expression incubated for 24 hrs by Western blot analysis; assay type: functional, cell-based; details: dose 7.5-30 nM
HEK-293T = experiment: Cytotoxicity against human HEK293T cells assessed as reduction in cell viability; assay type: cell-based
MGC-803 [4] = experiment: Induction of ROS generation in human MGC-803 cells assessed as intracellular ROS level at 7.5 nM incubated for 24 hrs by DCFH-DA staining based flow cytometric analysis (reference value: 2.72 %); assay type: functional
MGC-803 [5] = experiment: Antiinvasive activity in human MGC-803 cells assessed as decrease in number of migrated MGC-803 cells at 7.5 to 30 nM measured after 48 hrs by transwell assay; assay type: functional, cell-based; details: dose 7.5-30 nM
MGC-803 [6] = experiment: Induction of cell cycle arrest in human MGC-803 cells assessed as accumulation at G1 phase at 30 nM incubated for 24 hrs by propidium iodide staining based flow cytometry (reference value: 45.67 %); assay type: functional
MGC-803 [7] = experiment: Induction of cell cycle arrest in human MGC-803 cells assessed as accumulation at G2/M phase incubated for 24 hrs by propidium iodide staining based flow cytometry; assay type: functional; details: dose 7.5-30 nM
MGC-803 [8] = experiment: Induction of apoptosis in human MGC-803 cells assessed as necrotic cells at 15 nM measured after 48 hrs by Annexin V-APC/PI double staining based flow cytometry assay (reference value: 0.57 %); assay type: functional, cell-based
HeLa = experiment: Antiproliferative activity against human HeLa cells assessed as cell growth inhibition after 72 hrs by SRB assay; assay type: functional, cell-based
MGC-803 [9] = experiment: Induction of cell cycle arrest in human MGC-803 cells assessed as accumulation at S phase at 30 nM incubated for 24 hrs by propidium iodide staining based flow cytometry (reference value: 17.3 %); assay type: functional
Tubulin (Homo sapiens) [10] = molecular target: T1, Tubulin (Homo sapiens) (UniProt P68371+Q9H4B7+P0DPH7+P68366+Q13509+Q71U36+P04350+Q3ZCM7+P07437+P68363+Q9BQE3+Q6PEY2+Q13885+Q9BVA1+Q9BUF5); experiment: Inhibition of tubulin polymerization in human MGC-803 cells assessed as blockage of spindle formation at 30 nM measured after 48 hrs by Hoechst staining based confocal microscopy analysis; assay type: cell-based
MGC-803 [11] = experiment: Induction of G2/M phase cell cycle arrest in human MGC-803 cells assessed as upregulation of cyclinB1 protein expression at 7.5 to 30 nM measured after 48 hrs by western blot analysis; assay type: functional, cell-based; details: dose 7.5-30 nM
Tubulin (Homo sapiens) [12] = molecular target: T1, Tubulin (Homo sapiens); experiment: Inhibition of tubulin polymerization in human MGC-803 cells; assay type: cell-based
MGC-803 [13] = experiment: Induction of apoptosis in human MGC-803 cells assessed as increase in PARP expression incubated for 24 hrs by Western blot analysis; assay type: functional, cell-based; details: dose 7.5-30 nM
MGC-803 [14] = experiment: Down regulation of p21 expression in human MGC-803 cells at 7.5 to 30 nM measured after 24 hrs by Western blot analysis; assay type: functional, cell-based; details: dose 7.5-30 nM
MGC-803 [15] = experiment: Induction of apoptosis in human MGC-803 cells assessed as late apoptotic cells at 30 nM measured after 48 hrs by Annexin V-APC/PI double staining based flow cytometry assay (reference value: 1.05 %); assay type: functional, cell-based
MGC-803 [16] = experiment: Induction of apoptosis in human MGC-803 cells assessed as viable cells at 30 nM measured after 48 hrs by Annexin V-APC/PI double staining based flow cytometry assay (reference value: 92.1 %); assay type: functional, cell-based
MCF7 = experiment: Antiproliferative activity against human MCF7 cells assessed as cell growth inhibition after 72 hrs by SRB assay; assay type: functional, cell-based; details: MCF7, 72 h
MGC-803 [17] = experiment: Antitumor activity against CMTPX- labeled human MGC-803 cells xenografted in zebrafish assessed as inhibition of tumor growth measured after 72 hrs by fluorescence microscopic analysis; assay type: functional, cell-based; details: dose 25-100 nM
MGC-803 [18] = experiment: Induction of mitochondrial membrane potential loss in human MGC-803 cells after 48 hrs by JC-1 staining based flow cytometric analysis; assay type: functional, cell-based; details: dose 7.5-30 nM
MGC-803 [19] = experiment: Induction of ROS generation in human MGC-803 cells assessed as intracellular ROS level at 30 nM incubated for 24 hrs by DCFH-DA staining based flow cytometric analysis (reference value: 2.72 %); assay type: functional
MGC-803 [20] = experiment: Induction of apoptosis in human MGC-803 cells assessed as necrotic cells at 7.5 nM measured after 48 hrs by Annexin V-APC/PI double staining based flow cytometry assay (reference value: 0.57 %); assay type: functional, cell-based
MGC-803 [21] = experiment: Induction of apoptosis in human MGC-803 cells assessed as viable cells at 7.5 nM measured after 48 hrs by Annexin V-APC/PI double staining based flow cytometry assay (reference value: 97.1 %); assay type: functional, cell-based
A549 = experiment: Antiproliferative activity against human A549 cells assessed as cell growth inhibition after 72 hrs by SRB assay; assay type: functional, cell-based; details: A549, 72 h

COc1ccc(/C=C\c2cc(OC)c(OC)c(OC)c2)cc1/C=C/C(=O)Nc1ccccc1N
IC50 (U-937): 305 nM
Activity (MGC-803 [1]): Dose-Dependent Effect
Activity (MGC-803 [2]): Active
IC50 (Tubulin): 1000 nM
Activity (MGC-803 [3]): Dose-Dependent Effect
IC50 (HEK-293T): 352 nM
Activity (MGC-803 [4]): 17.4%
Activity (MGC-803 [5]): Active
Activity (MGC-803 [6]): 2.21%
Activity (MGC-803 [7]): Dose-Dependent Effect
Activity (MGC-803 [8]): Active
IC50 (HeLa): 50 nM
Activity (MGC-803 [9]): 13.6%
inhibition (Tubulin (Homo sapiens) [10]): Active
Activity (MGC-803 [11]): Active
inhibition (Tubulin (Homo sapiens) [12]): Active
Activity (MGC-803 [13]): Dose-Dependent Effect
Activity (MGC-803 [14]): Active
Activity (MGC-803 [15]): Active
Activity (MGC-803 [16]): Active
IC50 (MCF7): 23 nM
inhibition (MGC-803 [17]): Dose-Dependent Effect
Activity (MGC-803 [18]): Dose-Dependent Effect
Activity (MGC-803 [19]): 51.4%
Activity (MGC-803 [20]): Active
Activity (MGC-803 [21]): Active
IC50 (A549): 191 nM
